Measurements reported in US10471073B2, “Methods of reducing mammographic breast density and/or breast cancer risk” (Havah Therapeutics Pty Ltd., priority 2016, dated 2019).

What was measured:
[1] = system: prostate specific antigen (PSA); assay: IHC of high MBD breast tissue explants with columnar cell change: PSA; type: cell-based, human; details: for PSA, percentage of cell staining: 24 hours, E 5 nM, T 10 nM, G 100 nM, A 25 ng/L [sic]; for effect on PSA levels: tissue samples of both patients
Procedure: (§1) The samples are transported on ice for Prostate-specific antigen (PSA) determination. […] PSA is detectable in greater than 90% of the nipple fluid aspirations of normal women. […] This area was removed and transported on ice to the laboratory for explant culture. […] A representative piece of each tissue sample was immediately fixed in 4% formalin in phosphate-buffered saline (PBS) overnight at 4° C., followed by dehydration using an automatic tissue processor (Sakura Tissue-Tek VIP, USA) and paraffin wax embedding. A haematoxylin and eosin (H&E) stained section was used to assess tissue pathology. Additional consecutive sections were subjected to antigen retrieval to assess androgen receptor levels by immunohistochemistry (IHC). The remaining fresh tissue was cut into small (˜3×3×1 mm) pieces, and placed as triplicates on 1 cm^3 gelatin sponges (Spongostan; Johnson & Johnson, Skipton, UK) that were pre-soaked and then half submerged in treatment media containing 10% by volume dextran-coated charcoal stripped fetal calf serum (DCC-FCS) (SAFC biosciences, Kansas, USA) in 24-well tissue culture plates (BD Biosciences, NJ, USA). The tissues samples of both patients were cultured for 24 hours in a vehicle of 0.1% by volume of ethanol and subjected to the treatments set forth in Table 17.
(§2) Following 24 hours culturing in a 5% by volume CO2 enriched atmosphere at 37° C., the treated tissues samples were processed for IHC analyses as indicated below. Established IHC protocols were used to determine hormone receptor androgen receptor status in the 4 tissue samples prior to culture. Following microwave antigen retrieval in […] (pH6.5) tissue sections were incubated at 4° C. overnight with primary antibody for androgen receptor, estrogen receptor and PSA. Negative controls were generated by replacement of the primary antibodies with PBS. Tissues were dehydrated in ethanol and xylene and mounted with DPX (VWR International Ltd, England, UK). Following staining, digital images of stained sections were generated with a NanoZoomer scanner (Hamamatsu, Japan) to enable analyses of % positivity in untreated tissues, using Visual Image Analysis software (Video Pro, South Australia). A pathologist undertook histological evaluation with 25 years experience in breast pathology.

androgen receptor (AR) = assay: IHC of high MBD breast tissue explants with columnar cell change: androgen receptor; type: cell-based, human; details: for AR, percentage of cell staining: 24 hours, E 5 nM, T 10 nM, G 100 nM, A 25 ng/L [sic]; for effect on AR levels: tissue samples of both patients
Procedure: as §1, §2

estrogen receptor (ER) = assay: IHC of high MBD breast tissue explants with columnar cell change: estrogen receptor; type: cell-based, human; details: 24 hours, E 5 nM, T 10 nM, G 100 nM, A 25 ng/L [sic]
Procedure: as §1, §2

[2] = cited from earlier work
person with macromastia = assay: Macromastia: breast volume by water displacement; type: in vivo, human; details: tamoxifen and oral contraceptive therapy before the pellet
Procedure: The treatment consisted of testosterone 100 mg and anastrazole 3 mg compounded into a 4.5 mm pellet. The pellet was inserted into the subcutaneous fat of the lower abdominal wall.
Prior to treatment (Pre-treatment) the right and left breasts were separately placed in a calibrated bucket and the volume of displacement for each breast was measured. This was accomplished by submerging each breast until the breast was fully submerged but the water was not touching the chest wall. After one month of treatment the volume measurements were repeated using the same water displacement methodology. Fluid displacements were measured in mls.

pre-menopausal person = details: prior art; cited from earlier work

Structure (SMILES)	PSA, percentage of cell staining ([1]; Patient 1 explant, vehicle 20%)	PSA, percentage of cell staining ([1]; Patient 2 explant, vehicle […]%)	effect on PSA levels [1]	AR, percentage of cell staining (androgen receptor (AR); Patient 1 explant, vehicle […]%)	AR, percentage of cell staining (androgen receptor (AR); Patient 2 explant, vehicle 10%)	ER, percentage of cell staining (estrogen receptor (ER); Patient 1 explant, vehicle 90%)	ER, percentage of cell staining (estrogen receptor (ER); Patient 2 explant, vehicle 75%)	effect on AR levels (androgen receptor (AR))	fraction broken down in the liver as it is absorbed from the gut ([2]; oral delivery)	fraction broken down in the intestines by aromatase and other metabolic pathways ([2]; oral)	breast growth in macromastia (person with macromastia)	mammographic breast density (pre-menopausal person)
CC(C)(C#N)c1cc(Cn2cncn2)cc(C(C)(C)C#N)c1 [Anastrozole, 2,2′-[5-(1H-1,2,4-triazol-1-ylmethyl)-1,3-phenylene]bis(2-methylpropanenitrile)]	35%	25%	mild stimulatory effect	–	–	–	–	–	–	–	–	–
C[C@]12CC[C@@H]3c4ccc(O)cc4CC[C@H]3[C@@H]1CC[C@@H]2O [Estradiol, estradiol]	5%	<5%	–	5%	<5%	>95%	>95%	–	–	–	–	–
C[C@](O)(COc1ccc(C#N)cc1)C(=O)Nc1ccc(C#N)c(C(F)(F)F)c1 [GTx-024, (2S)-3-(4-cyanophenoxy)-N-[4-cyano-3-(trifluoromethyl)phenyl]-2-hydroxy-2-methylpropanamide]	50%	55%	increased	45%	55%	45%	25%	increased	–	–	–	–
C[C@]12CC[C@H]3[C@@H](CCC4=CC(=O)CC[C@@]43C)[C@@H]1CC[C@@H]2O [Testosterone, testosterone]	65%	45%	increased	35%	25%	50%	45%	increased	80-90%	approximately 85%	–	–
CC/C(=C(\c1ccccc1)c1ccc(OCCN(C)C)cc1)c1ccccc1 [tamoxifen]	–	–	–	–	–	–	–	–	–	–	failed to cease the breast growth	reduce
